Results published in patent US9274101B2 (BIOLOG, Inc., priority 2001, dated 2016).

How the values were obtained:
[1] = test system: HepG2 cells; test: HepG2 cells on flat bottom plastic wells, energy sources at a range of concentrations; format: cell-based, human
Description: In this Example, methods for testing adherent cells for their ability to use multiple carbon sources are described. The human hepatocellular carcinoma cell line known as HepG2 (Knowles et al., Science, 209:497-499 [1980]) was chosen for this experiment. However, this application is not intended to be limited to the use of HepG2 cells, hepatocytes, carcinoma cells or even human cells.
HepG2 cells were grown in Falcon tissue culture flasks with vented tops. The culture medium used was Minimal Essential medium (MEM, Invitrogen 11095) with 1 g/L glucose, 2 mM L-glutamine, 2.2 g/L sodium bicarbonate, 10 mg/L phenol red, and supplemented with 0.1 mM Nonessential Amino Acids, 1 mM sodium pyruvate, 50 U/mL penicillin, 50 μg/mL streptomycin, and 10% (v/v) heat inactivated fetal bovine serum (HI FBS, Invitrogen 16140). The cells were seeded at 2×10^4/cm^2 and used 3 days after initiation of culture. During all incubations, the cells were kept in an atmosphere of 5% CO2, 90-100% humidity, and 37° C. Cells were harvested by trypsinization for 3 minutes in 0.25% trypsin-1 mM EDTA and resuspended in an equal volume of culture medium. A viable cell count was obtained by trypan blue exclusion and an appropriate volume of the cell suspension (to have 33% more viable cells than was sufficient for the experiment) was placed in a polypropylene centrifuge tube. Cells were pelleted by centrifugation at 350×g for 10 minutes at room temperature, resuspended in Dulbecco's Phosphate Buffered Saline (D-PBS, Invitrogen 14040) and centrifuged a second time. Cells were then resuspended to two-thirds the final volume needed in Dulbecco' ? s Modified Eagle's Medium (DME, Sigma D5030) containing 10% HI FBS and penicillin-streptomycin but without glucose, L-glutamine, sodium pyruvate, and phenol red. An aliquot was counted by trypan blue exclusion and the cell density was adjusted to 1.28×10^5/mL. Cells were plated in 100 μL/well in wells of standard, 96-well plates (4×10^4 cells/cm^2) and allowed to adhere overnight prior to addition of test chemicals.
For assay, the culture medium was aspirated, the wells were washed once with D-PBS and 170 μL of DME were added to each well, followed by 30 μL of the appropriate dilution of each test energy source. Stocks of 133 mM of each test chemical were prepared in tissue culture grade water, sterile filtered, and dilutions were prepared in a master plate so that, upon dilution into a regular 96-well MICROPLATE a total well volume of 200 μL, the final concentrations would be 0.033 to 20 mM. Negative control wells received 30 μL of tissue culture grade water. For each plate containing energy sources and cells, a second, control plate containing only energy sources was prepared. Plates were incubated at 5% CO2, 90-100% humidity, and 37° C. for 48 to 72 hours prior to addition of the MTS/PMS colorometric reagent (10 μL/well). The color formed in each well 4-24 hours after addition of the calorimetric reagent, was measured with a plate reader at 490 nm with a reference wavelength of 650 nm. OD values from the control plate were subtracted from the OD values obtained with cells prior to normalizing the data to % negative control (cells without added energy source).

[2] = test system: HL-60 cells; test: Effect of 10 mM citric acid on HL-60 energy utilization; format: cell-based, human; conditions: negative control without energy sources and without citric acid

For O=C1O[C@@H]([C@H](O)CO)[C@H](O)[C@H]1O [D-gal acid g-lactone], the “HepG2 Cells Responses After 72 hours in Culture and a 4 hour Color Development Period” value (shortened to “HepG2 Cells Responses After 72 hours”) ([1]; Conc. 0.03 mM) was 111.3 % of negative control, the “HepG2 Cells Responses After 72 hours” value ([1]; Conc. 0.10 mM) was 142.3 % of negative control and the “HepG2 Cells Responses After 72 hours” value ([1]; Conc. 0.33 mM) was 164.7 % of negative control. The “HepG2 Cells Responses After 72 hours” value ([1]; Conc. 1.00 mM) was 162.9 % of negative control, the “HepG2 Cells Responses After 72 hours” value ([1]; Conc. 3.3 mM) was 157.3 % of negative control and the “HepG2 Cells Responses After 72 hours” value ([1]; Conc. 10 mM) was 178.4 % of negative control. The “HepG2 Cells Responses After 72 hours” value ([1]; Conc. 15 mM) was 239.3 % of negative control, the “HepG2 Cells Responses After 72 hours” value ([1]; Conc. 20 mM) was 207.6 % of negative control and the “Effect of 10 mM Citric Acid on HL-60 Energy Utilization” value (from here on “Effect of 10 mM Citric Acid”) ([2]; energy source 0.03 mM with 10 mM citric acid) was 9.5 % of negative control. For the same molecule, the “Effect of 10 mM Citric Acid” value ([2]; energy source 0.10 mM with 10 mM citric acid) was 20.9 % of negative control, the “Effect of 10 mM Citric Acid” value ([2]; energy source 0.33 mM with 10 mM citric acid) was 35.7 % of negative control and the “Effect of 10 mM Citric Acid” value ([2]; energy source 1.00 mM with 10 mM citric acid) was 63.3 % of negative control. For the same molecule, the “Effect of 10 mM Citric Acid” value ([2]; energy source 3.3 mM with 10 mM citric acid) was 162.8 % of negative control, the “Effect of 10 mM Citric Acid” value ([2]; energy source 10 mM with 10 mM citric acid) was 151.5 % of negative control and the “Effect of 10 mM Citric Acid” value ([2]; energy source 15 mM with 10 mM citric acid) was 126.5 % of negative control. The “Effect of 10 mM Citric Acid” value ([2]; energy source 20 mM with 10 mM citric acid) was 115.7 % of negative control.
